Results taken from paper PMC11882969 (Nature Communications, 2025).
Values joined by “and” are separate entries in the source; they are usually repeats but may differ in a detail not shown here. Identical values can stand only once.

Key:
Type in all cases: cell-based
[1] = molecular target: panel of 320 non-olfactory GPCRs (Homo sapiens, UniProt P07550)
[2] = molecular target: panel of 320 non-olfactory GPCRs (Homo sapiens, UniProt Q9H244)
[3] = molecular target: panel of 320 non-olfactory GPCRs (Homo sapiens, UniProt O14842)
Sequence of panel of 320 non-olfactory GPCRs (Homo sapiens, UniProt O14842) (O14842 whole entry): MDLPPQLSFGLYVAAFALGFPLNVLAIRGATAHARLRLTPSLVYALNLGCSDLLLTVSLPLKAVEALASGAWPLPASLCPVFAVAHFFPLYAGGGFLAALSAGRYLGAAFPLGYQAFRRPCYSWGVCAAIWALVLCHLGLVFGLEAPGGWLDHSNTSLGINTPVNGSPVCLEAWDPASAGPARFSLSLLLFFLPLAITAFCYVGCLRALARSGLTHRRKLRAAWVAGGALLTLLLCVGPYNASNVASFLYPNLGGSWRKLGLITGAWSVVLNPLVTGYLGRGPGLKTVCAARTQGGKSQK

[4] = molecular target: panel of 320 non-olfactory GPCRs (Homo sapiens, UniProt P18825)
Sequence of panel of 320 non-olfactory GPCRs (Homo sapiens, UniProt P18825) (P18825 whole entry): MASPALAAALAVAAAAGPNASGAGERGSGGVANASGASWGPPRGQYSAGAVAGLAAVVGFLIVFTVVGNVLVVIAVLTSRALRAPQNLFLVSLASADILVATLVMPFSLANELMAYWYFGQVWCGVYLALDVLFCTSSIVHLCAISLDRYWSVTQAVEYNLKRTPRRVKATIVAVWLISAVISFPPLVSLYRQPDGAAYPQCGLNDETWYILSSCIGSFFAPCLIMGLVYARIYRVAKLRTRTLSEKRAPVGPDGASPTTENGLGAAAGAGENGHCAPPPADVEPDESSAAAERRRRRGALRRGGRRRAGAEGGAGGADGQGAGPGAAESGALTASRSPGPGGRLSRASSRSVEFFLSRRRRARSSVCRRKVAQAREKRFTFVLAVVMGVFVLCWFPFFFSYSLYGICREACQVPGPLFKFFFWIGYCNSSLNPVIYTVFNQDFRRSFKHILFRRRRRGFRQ

[5] = molecular target: panel of 320 non-olfactory GPCRs (Homo sapiens, UniProt P32247)
[6] = molecular target: panel of 320 non-olfactory GPCRs (Homo sapiens, UniProt Q8WXD0)
[7] = molecular target: panel of 320 non-olfactory GPCRs (Homo sapiens, UniProt Q8IZF5)
[8] = molecular target: panel of 320 non-olfactory GPCRs (Homo sapiens, UniProt P50391)
Sequence of panel of 320 non-olfactory GPCRs (Homo sapiens, UniProt P50391) (P50391 whole entry): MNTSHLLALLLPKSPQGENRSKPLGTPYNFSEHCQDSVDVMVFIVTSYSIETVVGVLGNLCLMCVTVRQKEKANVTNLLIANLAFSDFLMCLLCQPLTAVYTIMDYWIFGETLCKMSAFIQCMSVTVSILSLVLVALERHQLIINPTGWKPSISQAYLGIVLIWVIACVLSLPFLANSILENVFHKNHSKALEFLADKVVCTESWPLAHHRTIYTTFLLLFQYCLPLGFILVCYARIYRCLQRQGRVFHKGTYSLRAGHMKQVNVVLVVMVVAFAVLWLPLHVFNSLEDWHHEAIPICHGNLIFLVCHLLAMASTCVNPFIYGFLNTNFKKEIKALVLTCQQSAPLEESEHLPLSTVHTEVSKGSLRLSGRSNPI

[9] = molecular target: panel of 320 non-olfactory GPCRs (Homo sapiens, UniProt O14626)
[10] = molecular target: panel of 320 non-olfactory GPCRs (Homo sapiens, UniProt P41180)
[11] = molecular target: panel of 320 non-olfactory GPCRs (Homo sapiens, UniProt P49682)
[12] = molecular target: panel of 320 non-olfactory GPCRs (Homo sapiens, UniProt P60893)
[13] = molecular target: panel of 320 non-olfactory GPCRs (Homo sapiens, UniProt O00421)
[14] = molecular target: panel of 320 non-olfactory GPCRs (Homo sapiens, UniProt Q8IZF7)
[15] = molecular target: panel of 320 non-olfactory GPCRs (Homo sapiens, UniProt Q15722)
Sequence of panel of 320 non-olfactory GPCRs (Homo sapiens, UniProt Q15722) (Q15722 whole entry): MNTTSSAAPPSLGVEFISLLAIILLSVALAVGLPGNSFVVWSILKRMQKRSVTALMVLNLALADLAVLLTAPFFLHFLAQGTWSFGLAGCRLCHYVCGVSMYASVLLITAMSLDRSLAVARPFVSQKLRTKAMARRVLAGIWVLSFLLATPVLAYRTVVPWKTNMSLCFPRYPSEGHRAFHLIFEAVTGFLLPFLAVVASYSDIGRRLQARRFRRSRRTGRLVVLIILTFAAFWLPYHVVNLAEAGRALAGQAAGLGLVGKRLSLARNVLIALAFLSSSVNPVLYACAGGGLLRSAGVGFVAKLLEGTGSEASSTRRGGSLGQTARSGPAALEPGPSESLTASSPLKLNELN

[16] = molecular target: panel of 320 non-olfactory GPCRs (Homo sapiens, UniProt Q14330)
Sequence of panel of 320 non-olfactory GPCRs (Homo sapiens, UniProt Q14330) (Q14330 whole entry): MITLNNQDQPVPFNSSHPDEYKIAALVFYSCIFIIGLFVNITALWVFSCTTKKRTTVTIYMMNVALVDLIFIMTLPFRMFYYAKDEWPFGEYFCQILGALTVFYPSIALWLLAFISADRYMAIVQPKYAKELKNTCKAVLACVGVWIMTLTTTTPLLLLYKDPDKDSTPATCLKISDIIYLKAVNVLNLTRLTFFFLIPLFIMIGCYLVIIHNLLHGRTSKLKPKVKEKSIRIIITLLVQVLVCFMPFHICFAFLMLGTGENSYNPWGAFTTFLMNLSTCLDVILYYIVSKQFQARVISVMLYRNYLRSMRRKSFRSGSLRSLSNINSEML

[17] = molecular target: panel of 320 non-olfactory GPCRs (Homo sapiens, UniProt P30939)
[18] = molecular target: panel of 320 non-olfactory GPCRs (Homo sapiens, UniProt P49146)
Sequence of panel of 320 non-olfactory GPCRs (Homo sapiens, UniProt P49146) (P49146 whole entry): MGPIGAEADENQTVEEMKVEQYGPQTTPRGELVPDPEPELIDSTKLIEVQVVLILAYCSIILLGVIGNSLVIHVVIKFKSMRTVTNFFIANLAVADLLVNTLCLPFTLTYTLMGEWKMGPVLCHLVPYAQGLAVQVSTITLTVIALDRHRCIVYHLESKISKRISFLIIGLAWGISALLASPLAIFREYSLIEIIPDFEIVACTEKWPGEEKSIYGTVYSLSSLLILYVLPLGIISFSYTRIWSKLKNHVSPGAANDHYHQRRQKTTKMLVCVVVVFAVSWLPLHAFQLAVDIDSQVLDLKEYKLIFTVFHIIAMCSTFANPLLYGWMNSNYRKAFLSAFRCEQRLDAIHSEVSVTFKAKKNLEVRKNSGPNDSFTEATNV

[19] = molecular target: panel of 320 non-olfactory GPCRs (Homo sapiens, UniProt P28336)
[20] = molecular target: panel of 320 non-olfactory GPCRs (Homo sapiens, UniProt P51582)
Sequence of panel of 320 non-olfactory GPCRs (Homo sapiens, UniProt P51582) (P51582 whole entry): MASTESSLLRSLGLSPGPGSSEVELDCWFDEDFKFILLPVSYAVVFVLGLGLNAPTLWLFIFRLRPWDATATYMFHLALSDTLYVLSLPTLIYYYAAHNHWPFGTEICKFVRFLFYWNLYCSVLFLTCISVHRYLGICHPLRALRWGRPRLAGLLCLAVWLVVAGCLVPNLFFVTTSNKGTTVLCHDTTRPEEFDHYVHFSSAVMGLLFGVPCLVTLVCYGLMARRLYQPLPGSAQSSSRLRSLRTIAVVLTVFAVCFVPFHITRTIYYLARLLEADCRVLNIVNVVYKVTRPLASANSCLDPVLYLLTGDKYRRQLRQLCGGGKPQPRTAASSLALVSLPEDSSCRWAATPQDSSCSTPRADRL

[21] = molecular target: panel of 320 non-olfactory GPCRs (Homo sapiens, UniProt Q9H1Y3)
[22] = molecular target: panel of 320 non-olfactory GPCRs (Homo sapiens, UniProt Q5NUL3)
[23] = molecular target: panel of 320 non-olfactory GPCRs (Homo sapiens, UniProt Q13639)
[24] = molecular target: panel of 320 non-olfactory GPCRs (Homo sapiens, UniProt Q9BZJ7)
[25] = molecular target: panel of 320 non-olfactory GPCRs (Homo sapiens, UniProt Q96AM1)
Sequence of panel of 320 non-olfactory GPCRs (Homo sapiens, UniProt Q96AM1) (Q96AM1 whole entry): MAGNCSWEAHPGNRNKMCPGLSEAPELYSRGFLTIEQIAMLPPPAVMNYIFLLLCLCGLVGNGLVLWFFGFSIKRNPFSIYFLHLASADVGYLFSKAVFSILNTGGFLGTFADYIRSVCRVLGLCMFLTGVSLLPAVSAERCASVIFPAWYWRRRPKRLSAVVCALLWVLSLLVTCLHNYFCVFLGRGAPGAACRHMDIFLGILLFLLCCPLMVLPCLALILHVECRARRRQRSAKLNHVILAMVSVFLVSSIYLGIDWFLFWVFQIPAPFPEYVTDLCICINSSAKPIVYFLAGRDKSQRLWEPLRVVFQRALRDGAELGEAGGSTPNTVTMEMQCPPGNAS

[26] = molecular target: panel of 320 non-olfactory GPCRs (Homo sapiens, UniProt Q16581)
Sequence of panel of 320 non-olfactory GPCRs (Homo sapiens, UniProt Q16581) (Q16581 whole entry): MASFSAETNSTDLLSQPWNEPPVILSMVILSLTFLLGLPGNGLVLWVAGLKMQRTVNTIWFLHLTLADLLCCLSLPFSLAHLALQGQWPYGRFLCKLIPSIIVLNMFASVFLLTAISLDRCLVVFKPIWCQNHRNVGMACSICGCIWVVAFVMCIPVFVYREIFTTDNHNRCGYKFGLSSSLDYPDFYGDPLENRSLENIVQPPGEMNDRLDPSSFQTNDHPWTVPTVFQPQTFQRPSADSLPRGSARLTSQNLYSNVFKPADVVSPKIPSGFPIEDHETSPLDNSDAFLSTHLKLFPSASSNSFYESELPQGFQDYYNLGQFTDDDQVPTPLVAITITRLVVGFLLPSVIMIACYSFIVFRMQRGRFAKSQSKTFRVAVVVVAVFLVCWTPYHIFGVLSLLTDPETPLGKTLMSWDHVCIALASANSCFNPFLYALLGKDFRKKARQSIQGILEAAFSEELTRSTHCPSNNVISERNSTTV

[27] = molecular target: panel of 320 non-olfactory GPCRs (Homo sapiens, UniProt Q969V1)
[28] = molecular target: panel of 320 non-olfactory GPCRs (Homo sapiens, UniProt Q02643)
[29] = molecular target: panel of 320 non-olfactory GPCRs (Homo sapiens, UniProt O95977)
[30] = molecular target: panel of 320 non-olfactory GPCRs (Homo sapiens, UniProt P24530)
Sequence of panel of 320 non-olfactory GPCRs (Homo sapiens, UniProt P24530) (P24530 27-442): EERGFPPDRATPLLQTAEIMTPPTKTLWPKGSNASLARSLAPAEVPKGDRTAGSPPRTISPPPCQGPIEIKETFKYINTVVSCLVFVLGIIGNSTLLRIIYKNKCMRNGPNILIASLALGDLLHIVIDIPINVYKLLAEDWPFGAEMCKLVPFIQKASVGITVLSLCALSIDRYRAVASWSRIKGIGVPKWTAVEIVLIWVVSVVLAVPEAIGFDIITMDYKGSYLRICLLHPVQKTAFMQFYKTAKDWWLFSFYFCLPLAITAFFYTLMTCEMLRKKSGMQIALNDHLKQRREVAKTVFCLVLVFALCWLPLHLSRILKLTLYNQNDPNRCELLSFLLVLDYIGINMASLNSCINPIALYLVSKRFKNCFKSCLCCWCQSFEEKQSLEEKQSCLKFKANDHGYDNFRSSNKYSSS

[31] = molecular target: panel of 320 non-olfactory GPCRs (Homo sapiens, UniProt P18089)
Sequence of panel of 320 non-olfactory GPCRs (Homo sapiens, UniProt P18089) (P18089 whole entry): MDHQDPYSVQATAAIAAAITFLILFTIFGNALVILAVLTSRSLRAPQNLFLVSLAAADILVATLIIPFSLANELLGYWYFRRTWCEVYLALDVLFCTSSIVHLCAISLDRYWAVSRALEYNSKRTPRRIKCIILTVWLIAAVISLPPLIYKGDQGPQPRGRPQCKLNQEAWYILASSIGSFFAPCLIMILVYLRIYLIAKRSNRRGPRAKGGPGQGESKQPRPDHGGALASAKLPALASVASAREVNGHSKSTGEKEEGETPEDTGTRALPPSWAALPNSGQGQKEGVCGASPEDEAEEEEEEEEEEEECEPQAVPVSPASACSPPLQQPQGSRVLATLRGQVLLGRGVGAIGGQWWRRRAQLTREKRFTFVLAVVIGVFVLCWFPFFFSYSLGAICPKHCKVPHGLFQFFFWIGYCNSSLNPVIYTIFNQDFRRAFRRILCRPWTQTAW

[32] = molecular target: panel of 320 non-olfactory GPCRs (Homo sapiens, UniProt P32248)
[33] = molecular target: panel of 320 non-olfactory GPCRs (Homo sapiens, UniProt P43115)
[34] = molecular target: panel of 320 non-olfactory GPCRs (Homo sapiens, UniProt Q9H228)
[35] = molecular target: panel of 320 non-olfactory GPCRs (Homo sapiens, UniProt Q8NFJ5)
Sequence of panel of 320 non-olfactory GPCRs (Homo sapiens, UniProt Q8NFJ5) (Q8NFJ5 whole entry): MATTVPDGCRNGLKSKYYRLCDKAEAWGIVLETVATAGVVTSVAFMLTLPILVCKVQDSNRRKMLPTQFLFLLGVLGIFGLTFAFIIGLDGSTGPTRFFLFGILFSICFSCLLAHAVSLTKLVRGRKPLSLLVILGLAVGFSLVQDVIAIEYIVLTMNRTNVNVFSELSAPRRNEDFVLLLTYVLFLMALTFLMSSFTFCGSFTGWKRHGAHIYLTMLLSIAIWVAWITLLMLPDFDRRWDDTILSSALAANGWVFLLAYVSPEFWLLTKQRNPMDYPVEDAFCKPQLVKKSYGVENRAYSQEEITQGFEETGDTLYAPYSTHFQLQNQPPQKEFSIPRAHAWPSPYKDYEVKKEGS

[36] = molecular target: panel of 320 non-olfactory GPCRs (Homo sapiens, UniProt P47211)
[37] = molecular target: panel of 320 non-olfactory GPCRs (Homo sapiens, UniProt P49286)
Also: test concentration or dose not given here.

`COC(=O)[C@@](C)(NC(=O)c1cc(C)n(-c2cccc(C(F)(F)F)c2)n1)c1cccs1` [‘1350] was tested, and the “Fold of Basal RLU” value [1] was 0.7, the “Fold of Basal RLU” value [2] was 0.7 and 0.6 and the “Fold of Basal RLU” value [3] was 1.4 and 0.7 and 1.1 and 0.8. The “Fold of Basal RLU” value [4] was 0.7 and 1.2 and 0.6, the “Fold of Basal RLU” value [5] was 1.8 fold and 1.6 fold and 2.9 fold and the “Fold of Basal RLU” value [6] was 1.3 and 0.9 and 1. The “Fold of Basal RLU” value [7] was 1.3 and 0.8 and 1.2, the “Fold of Basal RLU” value [8] was 1.3 and 1.4 and 1 and 0.7 and the “Fold of Basal RLU” value [9] was 1.4 and 1 and 1.5 and 0.8. The “Fold of Basal RLU” value [10] was 0.4 and 0.7 and 0.8, the “Fold of Basal RLU” value [11] was 0.5 and 0.4 and 0.6 and the “Fold of Basal RLU” value [12] was 1 fold and 1.9 fold and 1.2 fold. The “Fold of Basal RLU” value [13] was 1.8 and 1.2 and 1 and 0.9 and the “Fold of Basal RLU” value [14] was 0.8 and 0.9 and 0.7 and 0.5.
`Cc1cc(C(=O)NC(C)(c2ccco2)c2ccco2)nn1-c1cccc(C(F)(F)F)c1` [‘4936] was tested, and the “Fold of Basal RLU” value [15] was 0.6 and 1 and 0.9 and 0.8, the “Fold of Basal RLU” value [16] was 1.1 fold and 1.3 fold and 1.6 fold and 1.7 fold and the “Fold of Basal RLU” value [17] was 0.8 fold and 1.5 fold and 0.9 fold. The “Fold of Basal RLU” value [18] was 1.1 fold and 0.9 fold and 0.7 fold, the “Fold of Basal RLU” value [19] was 2.2 and 1.8 and 1.2 and 1.3 and the “Fold of Basal RLU” value [20] was 1.4 fold and 1.8 fold and 1.7 fold. The “Fold of Basal RLU” value [21] was 0.4 and 0.5, the “Fold of Basal RLU” value [22] was 0.3 and 0.2 and the “Fold of Basal RLU” value [23] was 1 fold and 1.6 fold and 0.9 fold. For the same compound, the “Fold of Basal RLU” value [24] was 0.7 and 1.4 and 0.9, the “Fold of Basal RLU” value [25] was 0.6 fold and 0.8 fold and 0.9 fold and the “Fold of Basal RLU” value [26] was 0.5 and 0.6 and 0.3. The “Fold of Basal RLU” value [27] was 1.7 and 1.4 and 1 and 1.6, the “Fold of Basal RLU” value [28] was 0.7 and 0.6 and 1 and the “Fold of Basal RLU” value [29] was 0.7 fold and 0.5 fold. The “Fold of Basal RLU” value [30] was 0.9 and 0.7 and 0.5, the “Fold of Basal RLU” value [31] was 0.9 and 1.2 and 1.6 and 1 and the “Fold of Basal RLU” value [32] was 0.9 and 0.7 and 0.6. The “Fold of Basal RLU” value [33] was 1.5 fold and 0.9 fold and 1 fold, the “Fold of Basal RLU” value [34] was 1.2 and 1.9 and 1.3 and the “Fold of Basal RLU” value [35] was 0.6 fold and 0.7 fold and 0.5 fold. The “Fold of Basal RLU” value [36] was 1.3 and 1 and 0.7 and 1.4 and the “Fold of Basal RLU” value [37] was 1.4 fold and 2 fold and 2.5 fold and 2.8 fold.
